Test results published in US8795707B2, “Compliant composites for application of drug-eluting coatings to tissue surfaces” (Trustees of Boston University, priority 2008, dated 2014).

How the values were obtained:
[1] = Release of 10-hydroxycamptothecin from polymer-collagen composites; format: physicochemical; conditions: PBS at 37° C.
Experimental: Using the procedures from Example 2, a composite was constructed from a collagen-based scaffold with a poly(caprolactone) barrier layer and two 10-hydroxycaptothecin-loaded (2% w/w) poly(glycerol monostearate) layers. The composites were submerged in 0.150 mL of PBS at 37° C. At specific time points, an aliquot of release media was removed and the concentration of HCPT was measured by fluorescence spectroscopy (λEx=382 nm and λEm=550 nm, Photon Technology International QM-4/2005 spectrofluorimeter). A calibration curve was constructed from nine samples of known HCPT concentrations with linearity observed from 10 nM to 5 μM (R^2=0.999) from which the drug concentration of each aliquot was determined. After the completion of release, the HCPT remaining in each film was quantified. Films were dissolved CH2Cl2 to release encapsulated drug, the solvent evaporated, and PBS (150 mL) was added under rigorous stirring. The fluorescence spectrum was recorded and remaining drug measured.

[2] = tested on: 4T1 metastatic mammary mouse tumor cells; conditions: implants co-implanted with 4T1 cells; cited from earlier work
tumor = conditions: pouch sutured subcutaneously, loaded three days after tumor inoculation; 30 day observation period; cited from earlier work

CC[C@@]1(O)C(=O)OCc2c1cc1n(c2=O)Cc2cc3cc(O)ccc3nc2-1 [10-hydroxycamptothecin]
HCPT released over the first 24 hours ([1]; collagen scaffold, poly(caprolactone) barrier, two 2% w/w HCPT layers): about 10% | HCPT release rate after the first five weeks ([1]; same composite): 0.5 % release per day | HCPT release rate, first two weeks ([1]; same composite): 2 % loading per day | HCPT release rate, following three weeks ([1]; same composite): approximately 1 % per day | duration of continued release detected ([1]; same composite): at least 6 weeks

CC(C)CCCC(C)C1CCC2C3CC(C[131I])C4=C(CCC(O)C4)C3CCC12C (stereo not shown) [^131I-norcholesterol]
mice in which tumor growth was prevented [2]: 69%

Nc1ccn([C@@H]2O[C@H](CO)[C@@H](O)C2(F)F)c(=O)n1 [gemcitabine]
mice with no observable tumor mass (tumor): Four of six
